Data set [1] has as its system lungs of live rats. Put plainly: Proton MRI (S0/T2 bivariate analysis) of lungs after intratracheal bleomycin instillation. It is filed as in vivo, Sprague-Dawley rats. On the procedure:
In these experiments, three groups of Sprague-Dawley rats (n=5) were instilled intratracheally with bleomycin (2.5 U/kg or 3.5 U/kg) in saline or with saline only. Rats were imaged at 2.0 T using a multi-slice Carr-Purcell-Meilboom-Gill (CPMG) sequence with 6 ms echo spacing. Signal intensity (S0) and T2 were calculated on a pixel-by-pixel basis using images collected before dosing and 1, 2, 4, and 7 weeks after. At each time point, data from dosed animals were compared to controls, and bivariate statistical analysis was employed to classify image pixels containing abnormal tissue. At week 7, pulmonary function tests were performed, then all rats were sacrificed, left lungs were formalin fixed and tri-chrome stained for histological analysis of collagen content, and right lungs were used to measure water and hydroxyproline (collagen) content.
Animal handling and treatment procedures followed a protocol approved by the Institutional Animal Care and Use Committee. A total of 18 male Sprague-Dawley rats weighing 196±8 g were used. […]
MRI Analysis. Images were reconstructed using a standard 2D Fourier transform, then they were read into Mathematica 6.0 (Wolfgram Research, Champaign, Ill.) for further analysis. […] The mean background noise was measured from the first image of each stack. […]
Following segmentation, data for each rat at each time point were written to a columnar data file that contained S0, T2, slice number, and the corresponding pixel coordinates. […] A scatter plot of T2 (y-axis) vs. S0 (x-axis) was then generated to show the clustering of the data and the relationship between the measured parameters (for example, see FIG. 2A). Using a Mathematica script and bivariate statistical analysis, an ellipsoid was calculated that encircled ˜95% of the data points that were heretofore defined as “normal” lung with 95% confidence.
Each dosed animal was compared to the control group at the same time point, and data points within the ellipsoid were deleted as shown in FIG. 4B. The percentage of total pixels that were “abnormal” was calculated for each animal at each time point. […]

Data set [2] in a line: Body weight and animal welfare after bleomycin instillation. It is filed as in vivo, Sprague-Dawley rats. The source says:
Animal handling and treatment procedures followed a protocol approved by the Institutional Animal Care and Use Committee. A total of 18 male Sprague-Dawley rats weighing 196±8 g were used. They were divided into three groups of n=6: control, low-dose (LD), and high-dose (HD). A single animal per dose group died immediately after dosing. Therefore, each group was left with n=5. No additional unanticipated mortality occurred for the duration of the experiment.
In brief, rats were first weighed then injected subcutaneously with 0.02 mL/kg body weight (BW) glycopyrrolate to inhibit oral secretions and facilitate insertion of an endotracheal tube. After 10-15 minutes, animals were anesthetized with 3-4% isoflurane in oxygen-enriched air (30% O2, 70% N2).
Other than the initial weight loss, no other outward signs of distress were observed.

For bleomycin sulfate, the “response of the LD group” value in data set [1] (2.5 U/kg BW intratracheal (LD), after the first two weeks of the study) is recorded as “very mild response”. Also, the “percentage of "abnormal" pixels vs control rats” value in data set [1] (2.5 U/kg BW intratracheal (LD), by week 4) is listed as “essentially indistinguishable from the control rats”. The “response (fraction of "abnormal" pixels) compared with LD rats” value in data set [1] (3.5 U/kg BW intratracheal (HD), throughout the experiment (7 weeks)) is “stronger response”. In data set [2] (3.5 U/kg BW (HD), weeks 1, 2 and 4), the breathing under anesthesia entry is listed as “struggle with breathing under anesthesia”. The body weight change result in data set [2] (both dose groups (2.5 and 3.5 U/kg BW), first week) was “lost a significant amount of weight”.
